tested on: MM.1S cells; assay: Inhibitory effect on the proliferation of MM.1S, MTS cell viability test; format: cell-based; details: Homo sapiens, MM1.S, 168 h, multiple myeloma MM.1S cells, 7 days incubation, read-out: Tumor cell inhibitory activity
Outline: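 MM.1S cells (20,000/well, RPMI 1640 with 10% FBS) exposed to 5-fold compound dilutions at 0.2% DMSO for 7 days at 37° C, 5% CO2. MTS added for 3-4 h; OD490-OD690 gave inhibition versus DMSO, IC50 fitted, mean of three experiments.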

SMILES | IC50 [nM]
N#CC1(c2ccccc2Cl)CCN(CCCCc2cccc3c2CN(C2CCC(=O)NC2=O)C3=O)CC1 (stereo not shown) [Example 91, 4-(2-chlorophenyl)-1-(4-(2-(2,6-dioxopiperidine-3-)-1-oxoisoindoline-4-)butyl)piperidine-4-carbonitrile] | < 100
O=C1CCC(N2Cc3c(OCCCCCN4CCC5(CC4)OCc4ccc(Cl)cc45)cccc3C2=O)C(=O)N1 (stereo not shown) [Example 132, 3-(4-((5-(6-chloro-3H-spiro[isobenzofuran-1,4-piperidine]-1-)pentyl)oxy)-1-oxoisoindoline-2-)piperidine-2,6-dione] | < 100
Cc1cc(C)c(C2(C#N)CCN(CCCCc3cccc4c3CN(C3CCC(=O)NC3=O)C4=O)CC2)c(C)c1 (stereo not shown) [Example 261, 1-(4-(2-(2,6-dioxopiperidin-3-yl)-1-oxoisoindolin-4-yl)butyl)-4-sym-trimethylphenylpiperidine-4-carbonitrile] | 1000 to 20000
N#CC1(c2ccc(F)cc2Cl)CCN(CCCOc2cccc3c2CN(C2CCC(=O)NC2=O)C3=O)CC1 (stereo not shown) [Example 74, 4-(2-chloro-4-fluorophenyl)-1-(3-((2-(2,6-dioxopiperidine-3-)-1-oxoisoindoline-4-)oxy)propyl)piperidine-4-carbonitrile] | < 100
CC(=O)N[C@@H](CCCc1cccc2c1CN(C1CCC(=O)NC1=O)C2=O)C(=O)Nc1ccc(C)c(Cl)c1 (stereo partly drawn) [Example 202, (2S)-2-acetylamino-N-(3-chloro-4-methylphenyl)-5-(2-(2,6-dioxopiperidine-3-)-1-oxoisoindoline-4-)pentanamide] | < 100
Cc1ccc(NC(=O)NCCOc2cccc3c2CN(C2CCC(=O)NC2=O)C3=O)cc1Cl (stereo not shown) [Example 160, 1-(3-chloro-4-methylphenyl)-3-(2-((2-(2,6-dioxopiperidine-3-)-1-oxoisoindoline-4-)oxy)ethyl)ure] | < 100
N#CC1(c2cccc(OC(F)(F)F)c2)CCN(CCOc2cccc3c2CN(C2CCC(=O)NC2=O)C3=O)CC1 (stereo not shown) [Example 66, 1-(2-((2-(2,6-dioxopiperidine-3-)-1-oxoisoindoline-4-)oxy)ethyl)-4-(3-(trifluoromethoxy)phenyl)piperidine-4-carbonitrile] | 100 to 1000
Cc1ccccc1N1CCN(CCCCc2cccc3c2CN(C2CCC(=O)NC2=O)C3=O)CC1 (stereo not shown) [Example 217, 3-(1-oxo-4-(4-(4-(o-tolyl)piperazine-1-yl)butyl)isoindoline-2-yl)piperidine-2,6-dione] | < 100
O=C1CCC(N2Cc3c(OCCCCNC(=O)N4CCN(c5cccc(Cl)c5Cl)CC4)cccc3C2=O)C(=O)N1 (stereo not shown) [Example 33, 4-(2,3-dichlorophenyl)-N-(4-((2-(2,6-dioxopiperidine-3-)-1-oxoisoindoline-4-)oxy)butyl)piperazine-1-carboxamide] | < 100
N#CC1(c2ccc(OC(F)(F)F)cc2)CCN(CCCOc2cccc3c2CN(C2CCC(=O)NC2=O)C3=O)CC1 (stereo not shown) [Example 73, 1-(3-((2-(2,6-dioxopiperidine-3-)-1-oxoisoindoline-4-)oxy)propyl)-4-(4-trifluoromethoxyphenyl)piperidine-4-carbonitrile] | < 100
O=C1CCC(N2Cc3c(OCCNC(=O)N4CCN(c5cccc(Cl)c5Cl)CC4)cccc3C2=O)C(=O)N1 (stereo not shown) [Example 32, 4-(2,3-dichlorophenyl)-N-(2-((2-(2,6-dioxopiperidine-3-)-1-oxoisoindoline-4-)oxy)ethyl)piperazine-1-carboxamide] | 100 to 1000
N#CC1(c2cccc(Cl)c2)CCN(C(=O)CCCCOc2cccc3c2CN(C2CCC(=O)NC2=O)C3=O)CC1 (stereo not shown) [Example 87, 4-(3-chlorophenyl)-1-(5-((2-(2,6-dioxopiperidine-3-)-1-oxoisoindoline-4-)oxy)valeryl)piperidine-4-carbonitrile] | < 100
O=C1CCC(N2Cc3c(OCCCCCCN4CCC5(CC4)COc4ccccc45)cccc3C2=O)C(=O)N1 (stereo not shown) [Example 148, 3-(4-((6-(2H-spiro[benzofuran-3,4′-piperidine]-1′-)hexyl)oxy)-1-oxoisoindoline-2-)piperidine-2,6-dione] | < 100
N#Cc1ccc(C2(C#N)CCN(CCCCCc3cccc4c3CN(C3CCC(=O)NC3=O)C4=O)CC2)cc1 (stereo not shown) [Example 268, 4-(4-cyanophenyl)-1-(5-(2-(2,6-dioxopiperidin-3-yl)-1-oxoisoindoline-4-yl)pentyl)piperidine-4-carbonitrile] | 100 to 1000
CC(=O)N[C@@H](CCCc1cccc2c1CN(C1CCC(=O)NC1=O)C2=O)c1nc2ccccc2[nH]1 (stereo partly drawn) [Example 203, N-((1S)-1-(1H-benzo[d]imidazole-2-)-4-(2-(2,6-dioxopiperidine-3-)-1-oxoisoindoline-4-)butyl)amide] | 100 to 1000
O=C1CCC(N2Cc3c(OCCCCC(=O)N4CCN(c5ccccc5)CC4)cccc3C2=O)C(=O)N1 (stereo not shown) [Example 30] | < 100
O=C1CCC(N2Cc3c(OCCCOc4ccnc5ccccc45)cccc3C2=O)C(=O)N1 (stereo not shown) [Example 4, 3-(1-oxo-4-(3-(quinoline-4-oxy)propoxy)isoindoline-2-)piperidine-2,6-dione] | 1000 to 20000

SMILES | IC50 [nM]
N#CC1(c2c(Cl)cccc2Cl)CCN(CCCCc2cccc3c2CN(C2CCC(=O)NC2=O)C3=O)CC1 (stereo not shown) [Example 266, 4-(2,6-dichlorophenyl)-1-(4-(2-(2,6-dioxopiperidin-3-yl)-1-oxoisoindoline-4-yl)butyl)piperidine-4-carbonitrile] | 100 to 1000
Cc1ccc(NC(=O)NCCCCOc2cccc3c2CN(C2CCC(=O)NC2=O)C3=O)cc1Cl (stereo not shown) [Example 162, 1-(3-chloro-4-methylphenyl)-3-(4-((2-(2,6-dioxopiperidine-3-)-1-oxoisoindoline-4-)oxy)butyl)urea] | < 100
O=C1CCC(N2Cc3c(CCCCCN4CCC5(CC4)OCc4cc(F)ccc45)cccc3C2=O)C(=O)N1 (stereo not shown) [Example 273, 3-(4-(5-(5-fluoro-3H-spiro[isobenzofuran-1,4′-piperidine]-1′-)pentyl)-1-oxoisoindoline-2-yl)piperidine-2,6-dione] | 100 to 1000
O=C1CCC(N2Cc3c(CCCCCOc4cnc5ccccc5c4)cccc3C2=O)C(=O)N1 (stereo not shown) [Example 11, 3-(1-oxo-4-(5-(quinoline-3-oxy)pentyl)isoindoline-2-)piperidine-2,6-dione] | < 100
O=C1CCC(N2Cc3c(CCCCN4CCN(c5noc6ccccc56)CC4)cccc3C2=O)C(=O)N1 (stereo not shown) [Example 228, 3-(4-(4-(4-(benzisoxazole-3-yl)piperazine-1-yl)butyl)-1-oxoisoindoline-2-yl)piperidine-2,6-dione] | 1000 to 20000
O=C1CCC(N2Cc3c(OCCNC(=O)N4CCC5(CC4)OCc4ccc(Cl)cc45)cccc3C2=O)C(=O)N1 (stereo not shown) [Example 155, 6-chloro-N-(2-((2-(2,6-dioxopiperidine-3-)-1-oxoisoindoline-4-)oxy)ethyl)-3H-spiro[isobenzofuran-1,4-piperidine]-1-carboxamide] | < 100
O=C1CCC(N2Cc3c(OCCCCOc4ccnc5ccccc45)cccc3C2=O)C(=O)N1 (stereo not shown) [Example 6, 3-(1-oxo-4-(4-(quinoline-4-oxy)butoxy)isoindoline-2-)piperidine-2,6-dione] | < 100
O=C1CCC(N2Cc3c(CCCCN4CCC5(CC4)OCc4ccc(Cl)cc45)cccc3C2=O)C(=O)N1 (stereo not shown) [Example 151, 3-(4-(4-(6-chloro-3H-spiro[isobenzofuran-1,4-piperidine]-1-)butyl)-1-oxoisoindoline-2-)piperidine-2,6-dione] | 100 to 1000
N#CC1(c2c(Cl)cccc2Cl)CCN(CCCOc2cccc3c2CN(C2CCC(=O)NC2=O)C3=O)CC1 (stereo not shown) [Example 76, 4-(2,6-chlorophenyl)-1-(3-((2-(2,6-dioxopiperidine-3-)-1-oxoisoindoline-4-)oxy)propyl)piperidine-4-carbonitrile] | < 100
N#CC1(c2ccc(Cl)c(Cl)c2)CCN(CCCCc2cccc3c2CN(C2CCC(=O)NC2=O)C3=O)CC1 (stereo not shown) [Example 272, 4-(3,4-dichlorophenyl)-1-(4-(2-(2,6-dioxopiperidin-3-yl)-1-oxoisoindoline-4-yl)butyl)piperidine-4-carbonitrile] | 100 to 1000
O=C1CCC(N2Cc3c(CCCCCN4CCN(c5ccnc6ccccc56)CC4)cccc3C2=O)C(=O)N1 (stereo not shown) [Example 24, 3-(1-oxo-4-(5-(4-(quinoline-4-)piperazine-1-)pentyl)isoindoline-2-)piperidine-2,6-dione] | < 100
O=C1CCC(N2Cc3c(OCCCCOc4ccnc5ccccc45)cc(F)cc3C2=O)C(=O)N1 (stereo not shown) [Example 211, 3-(6-fluoro-1-oxy-4-(4-(quinoline-4-oxy)butoxy)-1-oxoisoindoline-2-)piperidine-2,6-dione] | < 100
O=C1CCC(N2Cc3c(CCCCCN4CCCc5ccccc54)cccc3C2=O)C(=O)N1 (stereo not shown) [Example 103, 3-(4-(5-(3,4-dihydroquinoline-1(2H))pentyl)-1-oxoisoindoline-2-)piperidine-2,6-dione] | 100 to 1000
O=C1CCC(N2Cc3c(CCCCCN4CCC5(CC4)OCCc4ccccc45)cccc3C2=O)C(=O)N1 (stereo not shown) [Example 137, 3-(1-oxo-4-(5-(spiro[isochroman-1,4′-piperidine]-1′-)pentyl)isoindoline-2-)piperidine-2,6-dione] | 100 to 1000
O=C1CCC(N2Cc3c(OCCCCN4CCN(c5cccc6ccsc56)CC4)cccc3C2=O)C(=O)N1 (stereo not shown) [Example 239, 3-(4-(4-(4-(benzothiophene-7-yl)piperazine-1-yl)butoxy)-1-oxoisoindoline-2-yl)piperidine-2,6-dione] | 1000 to 20000
CC1CCc2cc(F)ccc2N1CCCCCc1cccc2c1CN(C1CCC(=O)NC1=O)C2=O (stereo not shown) [Example 104, 3-(4-(5-(6-fluoro-2-methyl-3,4-dihydroquinoline-1(2H))pentyl)-1-oxoisoindoline-2-) piperidine-2,6-dione] | 100 to 1000
O=C1CCC(N2Cc3c(OCCCC(=O)N4CCCc5ccccc54)cccc3C2=O)C(=O)N1 (stereo not shown) [Example 117, 3-(4-(4-(3,4-dihydroquinoline-1(2H)-)-4-oxobutoxy)-1-oxoisoindoline-2-)piperidine-2,6-dione] | 100 to 1000
